Test results published in patent US11419914B2 (Serenity Pharmaceuticals LLC, priority 2009, dated 2022).
Where two headings read alike, the source gives them in different places.

Assays:
[1] = clinical; details: human, in vivo, inhaled or intranasal
Experimental: (§1) The open-label preliminary study of the effects and pharmacokinetics of the prototype dispensers was conducted with six male and six female healthy, water loaded, non-smoking volunteer subjects, following the protocol described generally below. In summary, each subject was dosed up to four times over a period of one week with dosing administered every other day. […] All subjects were screened prior to the first treatment, including evaluations of medical history, complete physical exam including nasopharyngeal exam, serum chemistry including serum osmolality, urinalysis including urine osmolality.
On day one all subjects were asked to have his/her morning void prior to breakfast, and thereafter subjects started the water loading process. […] Insensible loss was not measured or replaced. […]
Blood sampling for pharmacokinetic determinations was performed at 1, 1.5, 2, 3, 4 and 6 hours post dose. […] A plasma concentration value below the limit of quantitation (“LOQ”) followed by values above the limit was set at ‘LOQ/2’ for the analysis and for the descriptive statistics on concentrations. […]
Assay values below the level of detection that occurred between two non-zero concentrations were considered to be “missing” for purposes of calculating the AUC. […] Accordingly, an average terminal half-life (Avg T1/2) was calculated for each subject that included a treatment with evaluable half-lives in that subject. […]

[2] = system: human adult subjects in a water loaded state; assay: Antidiuretic effect (urine output, urine osmolarity, duration) in water loaded subjects; format: in vivo
Experimental: as §1
On day one all subjects were asked to have his/her morning void prior to breakfast, and thereafter subjects started the water loading process. […] To achieve a steady state diuresis, the subjects were directed to drink a volume of water corresponding to at least 1.5% and up to 3% of body weight. The water loading process started about two hours prior to the dosing of the first subject. Subjects were asked to void every 20 minutes. To ensure continuous water loaded state, the subjects replaced their urinary output loss with an equivalent amount of fluid. Insensible loss was not measured or replaced. When the urinary output rate exceeded 10 ml/min in two consecutive measurements (defined as water loaded state) in the subjects, dosing began. Subjects were maintained in the water loaded state with equivalent fluid intake versus fluid loss.
Other than the dose level, all procedures were the same as those described for day one.

[3] = system: adult patients with nocturia; format: in vivo, human; details: 500 and 1000 ng (one or two sprays intranasally)
Experimental: A second separate study in adult patients with nocturia established that doses of 500 and 1000 ng (one or two sprays administered intranasally) produced dramatic therapeutic decreases in the number of night time urinary voids equal to or less than one per night in 41 of 43 patients.

[4] = in vivo, cited from earlier work

With `NC(=O)CC[C@@H]1NC(=O)[C@H](Cc2ccccc2)NC(=O)[C@H](Cc2ccc(O)cc2)NC(=O)CCSSC[C@@H](C(=O)N2CCC[C@H]2C(=O)N[C@H](CCCN=C(N)N)C(=O)NCC(N)=O)NC(=O)[C@H](CC(N)=O)NC1=O` [desmopressin, 1-desamino-8-D-arginine vasopressin] the half-life ([1]; both sexes, T1/2) was 1.13 ± 0.3 h, the T1/2 ([1]; both) was 1.33 ± 0.56 h and the “time urine osmolarity remained greater than about 400 mOsmol/Kg” value ([2]; after 2 μg nasally) was “about 250 minutes”. For the same compound, the “period urine output remained less than 8 ml/minute” value ([2]; after 2000 ng nasally) was “up to 400 minutes”, the mean urine output ([2]; within 20 minutes after 2000 ng nasally, water loaded men and women) was “less than 8 ml/minute” and the mean urine osmolarity ([2]; within 40 minutes after 2 μg nasally) was “greater than 400 mOsmol/kg”. The “patients with night time urinary voids equal to or less than one per night” value [3] was 41 of 43, the bioavailability ([4]; human, inhaled or intranasal) was 3-5% and the half life ([4]; human) was at least 1.5 h. For the same compound, the bioavailability ([4]; po) was “far less than one percent”.
